Measured values: patent publication US8729053B2, “Nuclear factor kappa B pathway inhibitor composition and use of same” (The United States of America, as represented by the …, priority 2008, dated 2014)
“Also recorded” adds a separate entry of the source. Counter-ions that a name gives are not always drawn.

How the values were obtained:
[1] = tested on: p65/p50; assay: Nuclear translocation of p65/p50, immunoblot of nuclear and cytoplasmic extracts; type: cell-based; details: compound I pretreatment, HEK293
Description: To measure endogenous level of several proteins in response to TPA induction and compound I, HEK293 cells were lysed with RIPA buffer (10 mM Tris-HCl pH 7.5, 1 mM EDTA, 0.1% sodium dodecyl sulfate, 0.1% deoxycholate, and protease inhibitor). Whole cell extracts were subjected to immunoblot analysis with the following antibodies: p65 (F-6), p50 (E-10), p52 (C-5), RelB (C-19), IκBα (C-21), PCNA (F-2) were obtained from Santa Cruz Biotechnology (Santa Cruz, Calif.). IKKα, IKKβ, IKKγ, phospho-IκBα, phospho-IKKα/β, phospho-IKKγ, pohospho-Stat3 (Tyr 705 and Ser 727), phospho-p65 (Ser536 and Ser276), phospho-p44/42, phospho-JNKs were purchased from Cell Signaling (Danvers, Mass.), and α-tubulin from Sigma (St. Louis, Mo.). Nuclear and cytoplasmic extracts were prepared with HEK293 cells by NE-PER Nuclear and Cytoplasmic Extraction Reagents (Pierce Biotechnology, Rockford, Ill.) according to the manufacturer's protocol.
Nuclear translocation of endogenous p65/p50 and RelB/p52 heterodimers were monitored The activation of heterodimers p65/p50 and RelB/p52 occurs by distinct pathways dependent on IKKβ or IKKα catalytic activity. Repression of IKKβ would be expected to influence nuclear translocation of p65/p50 while repression of IKKα would influence processing of p100 to p52. […] However translocation of RelB is only dependent on IKKα for processing of its dimer partner p52 from p100. […]

[2] = tested on: uPAR promoter; assay: uPAR promoter luciferase reporter assay in HEK293 cells; type: cell-based, human; details: TPA 10 ng/ml 18 hours
Description: All expression plasmids were transiently transfected into HEK293 cells in a 96-well plate (0.1 μg/well) by using Effectene transfection reagent (Qiagen, Valencia, Calif.) according to the manufacturer's manual. HEK293 cells were maintained in Dulbecco's modified Eagle medium (Sigma, St. Louis, Mo.) supplemented with 10% fetal bovine serum (Atlanta Biologicals, Lawrenceville, Ga.) and incubated at 37° C. in a 5% CO2 incubator. After 24 hrs incubation, the medium was changed to DMEM with 0.2% FBS, and the transfectants were exposed to various concentrations of compound I and TPA (10 ng/ml). Cells were lysed with passive lysis buffer and the luciferase assay was performed using the Firefly-Luciferase reporter assay system (Promega, Madison, Wis.) and MLX Luminometer (Dynex Technology, Chantilly, Va.).
Three different luciferase reporter genes, AP-1 reporter containing four times TRE consensus originated from GCN4 and SRE reporter purchased from Stratagene (La Jolla, Calif.) respectively are as described previously (Suzukawa et al., Environ. Health Perspect., 2002, 110, 865-70). […]
Inhibition of NFκB transactivation would be expected to result in suppressed expression of genes whose transcription depends on NFκB. Quantitative RT-PCR was used to measure endogenous levels of IL-6 mRNA, transcribed from a gene whose transcription depends on NFκB but not AP-1. […]

[3] = tested on: NCI-60 panel of human cancer cell lines; assay: NCI-60 cancer screen, growth inhibition; type: cell-based
Excerpt: Thus in addition to inhibiting tumorigenesis (transformation) and tumor progression (invasion), compound I may have potential for tumor growth inhibition in some cancer sites.

[4] = tested on: NF-1; assay: EMSA of NF-1 DNA binding, HEK293 nuclear fractions; type: cell-based; details: 17 μM
Description: EMSA was performed with the nuclear fraction of HEK293 cell using LightShift Chemiluminescent EMSA Kit (Pierce Biotechnology, Rockford, Ill.) according to the manufacture's instruction. Oligonucleotides for NFκB, NF-1, and AP-1 were labeled with biotin by Biotin 3′ End DNA labeling Kit (Pierce Biotechnology, Rockford, Ill.). The quantified 15 μg of nuclear extracts were incubated for 20 mins with 1 μg/μl Poly (dI.dC), biotin end-label target nucleotides in 20 μl binding buffer DNA-protein complexes were fractionated on 6% a polyacrylamide gel and transferred to a nylon membrane. The membranes were processed to detect biotin-label DNA by cross-linking, blocking, and detection incubations. Results were obtained by X-ray film exposure for 10 sec and development. The target sequences of oligonucleotides for NFκB, NF-1, and AP-1 are as follows;
To determine whether the effect of compound I on nuclear translocation of NFκB leads to inhibited binding of NFκB proteins to DNA, EMSA in HEK293 cells was performed. […] TPA-induced binding complex was attenuated by pretreatment with compound I in a dose-dependent manner (lanes 5-9). This binding inhibition parallels the inhibition of luciferase reporter transactivation and inhibition of nuclear translocation of NFκB proteins. […]

- NF-1 DNA binding activity [4]: little or no effect
SMILES: Cc1cc(N)ccc1N=Nc1ccc(S(=O)(=O)CCOS(=O)(=O)O)cc1 [compound I, 2-(4-((4-amino-2-methylphenyl)diazenyl)phenylsulfonyl)ethyl hydrogen sulfate]
- TPA-induced nuclear translocation of p65 (RelA) [1]: remarkably repressed; also recorded: interception
- uPAR luciferase activity [2]: dose-dependent inhibition
- inhibition at 1 µM ([3]; Homo sapiens, compound at 1 μM, read-out: Growth inhibition of leukemia lines): > 50%
- Killing of leukemia lines ([3]; concentrations up to 100 μM): does not kill
- Sensitivity of leukemia and breast cancer cell lines versus lines from other cancer sites ([3]; growth inhibition): more sensitive
- Concentration at which most of the NCI-60 lines showed growth inhibition ([3]; most of the NCI-60 human cancer cell lines): greater than 10 μM
